Key:
[1] = test system: U373 human glioblastoma cells; assay: MTT cytotoxicity assay, U373; type: cell-based; details: 48 h incubation, 3 independent experiments, read-out: IC50 (mean ± SE)
Procedure: (§1) Human brain tumor cells lines U87 MG (Cat.# HTB-14), U118 MG (Cat. # HTB-15), U138 (Cat # HTB-16), U373 MG (CAT. # HTB-17), and T98G (Cat. # CRL-1690) and breast cancer cell lines BT-20 (Cat # HTB-19), MDA-MB-231 (Cat # HTB-26), MDA-MB-361 (Cat # HTB-27), and MCF-7 (Cat # HTB-22) were obtained from American Type Culture Collection (ATCC, Rockville, Md.) and maintained as continuous cell lines in Dulbecco's modified Eagles's medium (U87, U118, U138, U373, T98 and BT-20) or Leibovitz's L-15 medium (MDA-MB-231 and MDA-MB-361). All media were supplemented with 10% fetal calf serum (FCS), 4 mM glutamine, 100 U/ml penicillin G and […] streptomycin sulfate. All tissue culture reagents were obtained from Life Technologies Inc. (GIBCO-BRL, Gaithersburg, Md.).
(§2) The cytotoxicity of [VO(SO4)(Me2-Phen)2] against human cancer cell lines was analyzed using the MTT (3-[4,5-dimethylthiazol-2-yl]-2,5-diphenyl tetrazolium bromide) assay (Boehringer Mannheim Corp., Indianapolis, Ind.) as described previously (Narla et al., Clin Cancer Res., 4: 1405-1414, 1998). […] The absorbance at 540 nm (a reference wavelength of 690 nm was used) of the solution in each well was measured using a microplate reader (Labsystems). The percent survival and the IC50 values were calculated using Graphpad Prism v2.0 (Graphpad Software, Inc., San Diego, Calif.) as described previously (Narla et al., Supra). […]

[2] = test system: MCF-7 breast cancer cells; assay: MTT cytotoxicity assay, MCF-7; type: cell-based, human; details: MCF-7 cells, 48 h incubation, 3 independent experiments, read-out: IC50 (mean ± SE)
Procedure: as §1, §2

[3] = test system: U138 human glioblastoma cells; assay: MTT cytotoxicity assay, U138; type: cell-based; details: 48 h incubation, 3 independent experiments, read-out: IC50 (mean ± SE)
Procedure: as §1, §2

U87 glioblastoma cells = assay: In situ detection of apoptosis (TdT-mediated dUTP nick-end labeling), U87; type: cell-based, human; details: dUTP-FITC labeling, read-out: apoptotic EC50
Procedure: (§3) Apoptosis was detected using an in situ cell death detection kit (Boehringer Mannheim Corp., Indianapolis, Ind.) as described previously (Albini et al., J. Cell Biol., 105: 1867-1872, 1987; Huang et al., J Biol Chem., 272: 2927-2935, 1997). Cells were incubated with [VO(SO4)(Me2-Phen)2] for 48 hours at 37° C., fixed, permeabilized, incubated with the reaction mixture containing terminal deoxynucleotidyl transferase (TdT) and fluorescein isothiocyanate (FITC)-conjugated dUTP and counterstained with propidium iodide. Cells were transferred to slides and viewed with confocal laser scanning microscope (Bio-Rad MRC 1024) mounted on a Nikon Eclipse E800 series upright microscope as previously reported (Narla et al., Supra).
(§4) Administration of [VO(SO4)(Me2-Phen)2] to cells induced apoptotic or programmed cell death as determined using the TdT-mediated dUTP nick-end labeling of exposed 3′-OH termini of DNA with dUTP-FITC.

[4] = test system: T98 human glioblastoma cells; assay: MTT cytotoxicity assay, T98; type: cell-based; details: 48 h incubation, 3 independent experiments, read-out: IC50 (mean ± SE)
Procedure: as §1, §2

[5] = test system: U87 human glioblastoma cells; assay: MTT cytotoxicity assay, U87; type: cell-based; details: 48 h incubation, 3 independent experiments, read-out: IC50 (mean ± SE)
Procedure: as §1, §2

[6] = test system: MDA-MB-231 breast cancer cells; assay: In situ detection of apoptosis (TdT-mediated dUTP nick-end labeling), MDA-MB-231; type: cell-based, human; details: MDA-MB-231 cells, dUTP-FITC labeling; read-out: apoptotic EC50
Procedure: as §3, §4

Cc1ccnc2c1ccc1c(C)ccnc12.Cc1ccnc2c1ccc1c(C)ccnc12.O=S(=O)([O-])[O-].[O]=[V+2] [[VO(SO4)(Me2-Phen)2], bis(4,7-dimethyl-1,10-phenanthroline) sulfatooxovanadium (IV)]
IC50 [1]: 2000 ± 400 nM | IC50 [2]: 2300 ± 400 nM | IC50 [3]: 2700 ± 400 nM | EC50 (U87 glioblastoma cells): 4200 ± 900 nM | IC50 [4]: 3900 ± 500 nM | IC50 [5]: 2100 ± 600 nM | EC50 [6]: 2100 ± 400 nM

Reference: patent US6878388B1, “Vanadium compounds for treating proliferative cell disorders” (Parker Hughes Institute, priority 2000, dated 2005)
